From ChEMBL document CHEMBL1201862, “PubChem BioAssay data set” (2004)
The source made the active and inactive calls.

Columns and labels:
INS1 = assay: beta cell apoptosis inhibitors, cytokine rescue, dose response, luminescence, retest (AID 449756); format: functional, cell-based; conditions: Rattus norvegicus;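 further: cell death triggered by IL-1 beta plus TNF-alpha plus IFN-gamma mixture; protective hits raise ATP signal compared with cytokine alone wells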
[1] = molecular target: T1, Replicative DNA helicase DnaB (Mycobacterium tuberculosis, UniProt P9WMR3); assay: DnaB intein splicing inhibitors, dose response, biochemical, cell-free fluorescence (AID 449749); format: functional
T1 sequence (P9WMR3 whole entry): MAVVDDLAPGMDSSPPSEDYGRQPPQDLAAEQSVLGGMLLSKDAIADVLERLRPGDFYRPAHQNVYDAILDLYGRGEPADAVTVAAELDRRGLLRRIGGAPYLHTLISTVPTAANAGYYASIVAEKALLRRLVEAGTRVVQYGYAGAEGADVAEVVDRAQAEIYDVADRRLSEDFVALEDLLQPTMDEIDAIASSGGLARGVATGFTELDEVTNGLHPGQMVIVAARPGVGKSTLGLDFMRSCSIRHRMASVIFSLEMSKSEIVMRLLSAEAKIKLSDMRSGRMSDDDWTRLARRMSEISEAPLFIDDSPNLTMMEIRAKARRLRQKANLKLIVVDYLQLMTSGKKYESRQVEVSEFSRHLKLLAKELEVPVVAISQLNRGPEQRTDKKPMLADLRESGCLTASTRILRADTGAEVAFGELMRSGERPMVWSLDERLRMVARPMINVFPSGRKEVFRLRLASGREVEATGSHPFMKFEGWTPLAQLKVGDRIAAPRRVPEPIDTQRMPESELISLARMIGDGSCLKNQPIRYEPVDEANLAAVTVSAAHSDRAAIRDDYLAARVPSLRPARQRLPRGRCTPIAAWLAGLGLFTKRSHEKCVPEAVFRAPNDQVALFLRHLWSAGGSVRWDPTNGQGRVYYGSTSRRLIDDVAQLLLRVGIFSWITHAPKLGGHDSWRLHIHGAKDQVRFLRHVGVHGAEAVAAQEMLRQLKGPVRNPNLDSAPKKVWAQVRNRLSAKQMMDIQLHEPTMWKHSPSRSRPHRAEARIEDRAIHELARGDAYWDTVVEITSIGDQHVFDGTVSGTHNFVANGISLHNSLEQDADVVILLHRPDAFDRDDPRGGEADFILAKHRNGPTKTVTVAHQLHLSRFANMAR

[2] = molecular target: T2, Sentrin-specific protease 7 (Homo sapiens, UniProt Q9BQF6); format: functional;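 further: Luminescence-based dose-response confirmation of ultra-high-throughput screening hits, measuring inhibition of SENP7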
T2 sequence (Q9BQF6 whole entry): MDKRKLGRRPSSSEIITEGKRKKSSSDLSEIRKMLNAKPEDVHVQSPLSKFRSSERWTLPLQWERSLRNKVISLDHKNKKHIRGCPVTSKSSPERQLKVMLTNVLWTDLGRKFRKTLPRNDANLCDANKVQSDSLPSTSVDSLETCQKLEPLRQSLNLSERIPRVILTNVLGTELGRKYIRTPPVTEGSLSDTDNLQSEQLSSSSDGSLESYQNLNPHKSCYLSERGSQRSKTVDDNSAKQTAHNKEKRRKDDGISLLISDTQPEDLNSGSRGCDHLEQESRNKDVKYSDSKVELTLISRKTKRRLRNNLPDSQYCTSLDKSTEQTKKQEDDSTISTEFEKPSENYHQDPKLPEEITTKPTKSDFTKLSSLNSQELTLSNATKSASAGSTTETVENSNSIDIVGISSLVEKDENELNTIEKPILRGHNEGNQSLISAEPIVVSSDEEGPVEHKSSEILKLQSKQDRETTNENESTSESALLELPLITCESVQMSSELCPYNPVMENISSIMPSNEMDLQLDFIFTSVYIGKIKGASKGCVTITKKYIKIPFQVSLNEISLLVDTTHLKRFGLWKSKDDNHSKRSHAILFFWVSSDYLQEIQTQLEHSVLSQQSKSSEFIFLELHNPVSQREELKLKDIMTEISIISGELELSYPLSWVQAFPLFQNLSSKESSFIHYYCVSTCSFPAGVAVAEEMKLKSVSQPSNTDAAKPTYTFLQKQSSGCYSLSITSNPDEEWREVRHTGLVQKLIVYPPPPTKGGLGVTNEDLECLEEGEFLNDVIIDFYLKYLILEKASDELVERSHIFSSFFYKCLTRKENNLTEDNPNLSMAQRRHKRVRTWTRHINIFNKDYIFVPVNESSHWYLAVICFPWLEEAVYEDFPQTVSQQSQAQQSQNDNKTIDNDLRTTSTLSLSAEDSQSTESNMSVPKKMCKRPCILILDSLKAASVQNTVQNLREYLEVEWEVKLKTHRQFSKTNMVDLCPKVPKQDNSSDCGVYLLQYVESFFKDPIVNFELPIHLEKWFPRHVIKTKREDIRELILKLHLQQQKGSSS

[3] = molecular target: Glycogen synthase kinase-3 alpha (Homo sapiens, UniProt P49840); format: functional;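 further: GSK3A result taken from a broad kinome-wide kinase panel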
[4] = molecular target: Dual specificity protein kinase CLK4 (Homo sapiens, UniProt Q9HAZ1); format: functional
Focal adhesion kinase 1 = Focal adhesion kinase 1 (Homo sapiens, UniProt Q05397); format: functional;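 further: measured as one member of a kinome panel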
[5] = molecular target: Dual specificity mitogen-activated protein kinase kinase 1 (Homo sapiens, UniProt Q02750); assay: Navigating the Kinome. Panel member name: MAP2K1; format: functional
[6] = molecular target: Tyrosine-protein kinase ABL1 (Homo sapiens, UniProt P00519); format: functional
[7] = molecular target: Cyclin-dependent kinase 8 (Homo sapiens, UniProt P49336); assay: Navigating the Kinome. Panel member name: CDK8; format: functional
[8] = molecular target: Vascular endothelial growth factor receptor 2 (Homo sapiens, UniProt P35968); format: functional
[9] = molecular target: Serine/threonine-protein kinase TAO1 (Homo sapiens, UniProt Q7L7X3); format: functional
[10] = molecular target: Dual specificity tyrosine-phosphorylation-regulated kinase 1B (Homo sapiens, UniProt Q9Y463); assay: Navigating the Kinome. Panel member name: DYRK1B; format: functional
Aurora kinase A = molecular target: T3, Aurora kinase A (Homo sapiens, UniProt O14965); format: functional;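 further: value from the Navigating the Kinome kinase panel profiling, panel entry STK6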
T3 sequence (O14965 whole entry): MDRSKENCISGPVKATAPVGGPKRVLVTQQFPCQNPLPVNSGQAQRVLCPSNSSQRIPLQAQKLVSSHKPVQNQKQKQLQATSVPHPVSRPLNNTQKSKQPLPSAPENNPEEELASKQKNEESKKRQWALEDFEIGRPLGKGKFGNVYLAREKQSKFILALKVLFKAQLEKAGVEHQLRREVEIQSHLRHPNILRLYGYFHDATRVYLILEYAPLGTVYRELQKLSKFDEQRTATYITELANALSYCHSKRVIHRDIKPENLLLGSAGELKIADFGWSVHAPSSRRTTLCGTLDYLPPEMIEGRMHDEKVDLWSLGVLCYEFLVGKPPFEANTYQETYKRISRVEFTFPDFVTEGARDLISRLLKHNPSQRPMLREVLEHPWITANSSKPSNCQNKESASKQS

[11] = molecular target: Tyrosine-protein kinase JAK2 (Homo sapiens, UniProt O60674); format: functional;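 further: JAK2 tested as one member of a kinase panel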

Chain of Focal adhesion kinase 1 (Q05397 whole entry): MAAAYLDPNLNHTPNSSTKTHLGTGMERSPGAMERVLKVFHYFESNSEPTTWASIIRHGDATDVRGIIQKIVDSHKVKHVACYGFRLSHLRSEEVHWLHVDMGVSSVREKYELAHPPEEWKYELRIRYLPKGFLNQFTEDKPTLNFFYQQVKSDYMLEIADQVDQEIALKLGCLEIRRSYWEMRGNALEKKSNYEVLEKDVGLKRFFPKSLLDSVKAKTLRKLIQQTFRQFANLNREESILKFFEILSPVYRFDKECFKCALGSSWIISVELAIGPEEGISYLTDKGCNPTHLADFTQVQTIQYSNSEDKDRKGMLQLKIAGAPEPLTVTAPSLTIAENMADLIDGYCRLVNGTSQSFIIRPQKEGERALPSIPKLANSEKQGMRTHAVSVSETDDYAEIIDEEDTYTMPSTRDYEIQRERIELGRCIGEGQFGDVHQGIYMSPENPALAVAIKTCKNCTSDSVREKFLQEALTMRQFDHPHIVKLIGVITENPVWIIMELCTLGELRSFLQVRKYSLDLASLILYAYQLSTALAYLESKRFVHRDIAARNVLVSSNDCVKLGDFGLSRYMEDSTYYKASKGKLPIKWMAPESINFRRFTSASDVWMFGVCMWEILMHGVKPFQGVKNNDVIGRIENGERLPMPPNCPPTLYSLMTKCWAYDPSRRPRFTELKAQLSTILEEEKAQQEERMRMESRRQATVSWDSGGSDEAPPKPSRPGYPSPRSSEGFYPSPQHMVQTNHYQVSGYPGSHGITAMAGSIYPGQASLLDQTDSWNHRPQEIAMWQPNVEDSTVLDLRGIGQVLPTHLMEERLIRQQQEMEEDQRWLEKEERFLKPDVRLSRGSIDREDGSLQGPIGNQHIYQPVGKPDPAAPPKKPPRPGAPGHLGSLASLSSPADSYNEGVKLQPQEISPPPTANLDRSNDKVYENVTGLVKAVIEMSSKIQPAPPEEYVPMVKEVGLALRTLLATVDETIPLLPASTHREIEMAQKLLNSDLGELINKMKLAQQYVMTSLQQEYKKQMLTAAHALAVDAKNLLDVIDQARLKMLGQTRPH
Chain of Cyclin-dependent kinase 8 (P49336 whole entry): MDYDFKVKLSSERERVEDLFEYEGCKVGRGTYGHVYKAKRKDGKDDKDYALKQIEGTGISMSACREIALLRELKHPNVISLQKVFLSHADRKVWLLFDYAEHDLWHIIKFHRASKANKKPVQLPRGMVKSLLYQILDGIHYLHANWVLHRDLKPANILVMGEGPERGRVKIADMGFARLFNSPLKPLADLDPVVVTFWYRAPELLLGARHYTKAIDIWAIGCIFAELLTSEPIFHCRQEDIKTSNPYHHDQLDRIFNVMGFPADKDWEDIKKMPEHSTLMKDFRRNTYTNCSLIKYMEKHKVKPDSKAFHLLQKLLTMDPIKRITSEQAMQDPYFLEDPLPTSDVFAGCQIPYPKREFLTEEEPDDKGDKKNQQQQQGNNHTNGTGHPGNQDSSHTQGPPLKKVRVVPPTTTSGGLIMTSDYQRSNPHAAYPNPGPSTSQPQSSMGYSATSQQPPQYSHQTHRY
Chain of Tyrosine-protein kinase ABL1 (P00519 whole entry): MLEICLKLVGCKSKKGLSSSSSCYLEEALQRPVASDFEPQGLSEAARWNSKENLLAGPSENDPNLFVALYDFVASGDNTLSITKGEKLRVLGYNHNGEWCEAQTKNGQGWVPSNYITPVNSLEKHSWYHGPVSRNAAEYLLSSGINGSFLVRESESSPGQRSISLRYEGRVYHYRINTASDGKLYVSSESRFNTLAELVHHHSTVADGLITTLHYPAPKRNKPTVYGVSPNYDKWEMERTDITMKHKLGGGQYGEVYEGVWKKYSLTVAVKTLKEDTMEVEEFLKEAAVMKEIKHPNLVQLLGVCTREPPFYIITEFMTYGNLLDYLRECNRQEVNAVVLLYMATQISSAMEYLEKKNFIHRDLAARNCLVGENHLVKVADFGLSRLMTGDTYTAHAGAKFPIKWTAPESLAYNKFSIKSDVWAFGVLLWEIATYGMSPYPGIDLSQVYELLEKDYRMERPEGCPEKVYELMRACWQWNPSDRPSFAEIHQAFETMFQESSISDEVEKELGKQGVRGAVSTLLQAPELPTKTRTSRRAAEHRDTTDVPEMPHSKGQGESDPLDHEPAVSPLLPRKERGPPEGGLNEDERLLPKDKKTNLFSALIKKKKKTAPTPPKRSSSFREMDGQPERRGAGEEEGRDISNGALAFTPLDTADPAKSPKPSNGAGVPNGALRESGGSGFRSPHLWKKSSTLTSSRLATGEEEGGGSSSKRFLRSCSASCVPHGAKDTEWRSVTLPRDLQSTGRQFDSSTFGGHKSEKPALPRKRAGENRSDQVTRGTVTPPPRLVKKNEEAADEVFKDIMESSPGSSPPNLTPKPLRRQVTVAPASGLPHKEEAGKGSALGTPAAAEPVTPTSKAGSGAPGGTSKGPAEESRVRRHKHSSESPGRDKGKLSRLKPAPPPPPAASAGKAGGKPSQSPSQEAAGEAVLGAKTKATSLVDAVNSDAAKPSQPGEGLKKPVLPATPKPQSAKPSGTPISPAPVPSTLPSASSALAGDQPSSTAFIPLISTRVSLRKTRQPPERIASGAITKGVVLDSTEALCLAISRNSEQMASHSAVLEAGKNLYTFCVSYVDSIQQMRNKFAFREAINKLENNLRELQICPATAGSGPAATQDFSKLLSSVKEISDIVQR
Chain of Dual specificity mitogen-activated protein kinase kinase 1 (Q02750 whole entry): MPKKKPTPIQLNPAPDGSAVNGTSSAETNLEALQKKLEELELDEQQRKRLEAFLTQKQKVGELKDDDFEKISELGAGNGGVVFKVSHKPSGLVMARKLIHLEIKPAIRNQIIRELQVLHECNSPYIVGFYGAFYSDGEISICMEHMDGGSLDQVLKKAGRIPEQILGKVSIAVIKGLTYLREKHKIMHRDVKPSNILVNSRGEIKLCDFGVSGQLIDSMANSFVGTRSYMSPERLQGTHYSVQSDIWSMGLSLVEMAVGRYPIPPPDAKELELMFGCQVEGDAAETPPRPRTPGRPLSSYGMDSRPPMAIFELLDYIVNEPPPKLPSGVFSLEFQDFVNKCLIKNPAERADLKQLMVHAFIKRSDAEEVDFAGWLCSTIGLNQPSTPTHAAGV
Chain of Serine/threonine-protein kinase TAO1 (Q7L7X3 whole entry): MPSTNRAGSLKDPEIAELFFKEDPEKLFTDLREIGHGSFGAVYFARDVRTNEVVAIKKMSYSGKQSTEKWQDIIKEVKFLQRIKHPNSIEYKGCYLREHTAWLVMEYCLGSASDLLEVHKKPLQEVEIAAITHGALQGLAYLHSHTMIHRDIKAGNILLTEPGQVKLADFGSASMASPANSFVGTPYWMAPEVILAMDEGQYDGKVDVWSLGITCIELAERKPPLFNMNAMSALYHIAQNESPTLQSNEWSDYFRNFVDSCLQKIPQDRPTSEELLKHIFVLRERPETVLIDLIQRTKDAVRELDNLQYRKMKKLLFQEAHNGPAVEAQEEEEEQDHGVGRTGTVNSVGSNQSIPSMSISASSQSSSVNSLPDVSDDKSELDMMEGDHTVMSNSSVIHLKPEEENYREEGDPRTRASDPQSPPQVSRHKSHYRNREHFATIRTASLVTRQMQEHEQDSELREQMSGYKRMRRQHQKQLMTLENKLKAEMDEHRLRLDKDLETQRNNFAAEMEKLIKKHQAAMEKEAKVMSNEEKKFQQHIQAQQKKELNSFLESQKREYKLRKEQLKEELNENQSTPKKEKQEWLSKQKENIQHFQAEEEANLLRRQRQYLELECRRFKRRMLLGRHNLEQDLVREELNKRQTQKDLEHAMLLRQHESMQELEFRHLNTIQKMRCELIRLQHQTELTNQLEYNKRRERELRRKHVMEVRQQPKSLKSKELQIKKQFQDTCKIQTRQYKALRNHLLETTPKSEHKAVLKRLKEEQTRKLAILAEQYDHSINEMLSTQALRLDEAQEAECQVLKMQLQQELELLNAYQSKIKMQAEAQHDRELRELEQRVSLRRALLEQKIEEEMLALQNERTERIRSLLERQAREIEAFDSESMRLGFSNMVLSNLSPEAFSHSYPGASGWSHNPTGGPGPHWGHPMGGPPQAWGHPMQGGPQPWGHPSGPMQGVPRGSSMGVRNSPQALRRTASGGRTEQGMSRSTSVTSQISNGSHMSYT
Chain of Dual specificity protein kinase CLK4 (Q9HAZ1 whole entry): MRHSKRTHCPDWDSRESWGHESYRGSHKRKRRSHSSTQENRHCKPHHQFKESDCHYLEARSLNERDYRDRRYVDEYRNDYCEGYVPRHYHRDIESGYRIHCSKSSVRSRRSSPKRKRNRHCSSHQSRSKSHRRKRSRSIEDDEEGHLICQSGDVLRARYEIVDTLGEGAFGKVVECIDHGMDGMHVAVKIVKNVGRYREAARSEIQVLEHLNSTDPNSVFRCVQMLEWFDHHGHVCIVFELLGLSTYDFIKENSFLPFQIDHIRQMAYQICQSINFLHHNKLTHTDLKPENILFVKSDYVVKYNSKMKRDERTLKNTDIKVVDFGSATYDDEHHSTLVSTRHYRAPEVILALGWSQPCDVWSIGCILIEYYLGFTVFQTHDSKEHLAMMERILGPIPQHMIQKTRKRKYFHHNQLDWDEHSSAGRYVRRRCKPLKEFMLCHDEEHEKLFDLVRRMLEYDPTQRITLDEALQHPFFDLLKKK
Chain of Glycogen synthase kinase-3 alpha (P49840 whole entry): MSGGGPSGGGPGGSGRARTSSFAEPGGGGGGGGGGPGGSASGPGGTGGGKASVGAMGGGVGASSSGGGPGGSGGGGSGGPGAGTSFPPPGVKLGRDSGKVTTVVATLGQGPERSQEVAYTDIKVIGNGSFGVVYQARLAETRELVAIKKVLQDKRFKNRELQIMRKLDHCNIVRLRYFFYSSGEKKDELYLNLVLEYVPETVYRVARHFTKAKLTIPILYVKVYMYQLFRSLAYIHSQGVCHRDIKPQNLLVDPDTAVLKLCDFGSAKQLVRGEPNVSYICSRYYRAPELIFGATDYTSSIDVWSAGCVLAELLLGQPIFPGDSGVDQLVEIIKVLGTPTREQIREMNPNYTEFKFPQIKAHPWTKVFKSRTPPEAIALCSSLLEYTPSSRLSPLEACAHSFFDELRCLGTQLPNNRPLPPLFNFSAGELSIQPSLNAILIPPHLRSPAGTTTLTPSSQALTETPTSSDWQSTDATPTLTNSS

SMILES: CC(C)(C)c1cc[n+](C2=C([N-]S(=O)(=O)c3cccs3)C(=O)c3ccccc3C2=O)cc1
- AC50 (INS1): 2.04 µM (active)
- AC50 [1]: 0.98 µM (active)
- IC50 [2]: 8.77 µM (active)

SMILES: Cc1ccc(F)c(NC(=O)Nc2ccc(-c3cccc4[nH]nc(N)c34)cc2)c1 [LINIFANIB]
- Ki [3]: > 3.98 µM (inactive)

SMILES: COc1c(-c2nc3ccccc3[nH]2)c(O)cc2oc(C)cc(=O)c12
- Ki [3]: 1 µM (active)
- Ki [4]: 0.0794 µM (active)
- Ki (Focal adhesion kinase 1): 2.51 µM (active)
- Ki [5]: 0.631 µM (active)
- Ki [6]: 0.794 µM (active)
- Ki [7]: 0.316 µM (active)
- Ki [8]: 2.51 µM (active)
- Ki [9]: 3.98 µM (active)
- Ki [10]: 0.398 µM (active)
- Ki (Aurora kinase A): 0.251 µM (active)
- Ki [11]: 2 µM (active)

SMILES: Cc1cc([N+](=O)[O-])cc(/C=N\NC(=O)C2COc3ccccc3O2)c1O (stereo not given)
- IC50 [2]: 14.5 µM (active)

SMILES: CCc1ccc(S(=O)(=O)/N=C2\C=C(Nc3ccc(O)cc3)C(=O)c3ccccc32)cc1
- AC50 (INS1): 0.981 µM (active)
- AC50 [1]: 0.416 µM (active)

SMILES: COC(=O)c1c(N)nc2ccccn12
- Ki [4]: 3.98 µM (active)
- Ki (Focal adhesion kinase 1): 79.4 µM (active)
- Ki [5]: 31.6 µM (active)
- Ki [6]: 100 µM (active)
- Ki [7]: 20 µM (active)
- Ki [8]: 25.1 µM (active)
- Ki [9]: 100 µM (active)
- Ki [10]: 20 µM (active)
- Ki (Aurora kinase A): > 63.1 µM (inactive)
- Ki [11]: 79.4 µM (active)

SMILES: CCCNC(=O)c1c(N)n(CC2CCCO2)c2nc3ccccc3nc12 (stereo not given)
- IC50 [2]: 2.83 µM (active)

SMILES: O=C1/C(=C\c2cccc(O)c2O)SC(=S)N1Cc1ccccc1
- AC50 [1]: > 380 µM (inactive)
